Reference: PubChem BioAssay (NCI)
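Interpolation was linear, between the two tested concentrations surrounding the appropriate level; five concentrations were tested over 48 hours in 96-well plates. GI50 marks 50% less growth. TGI is the concentration that stops growth completely.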

Key:
Test in all cases: inhibition of tumour cell growth, NCI panel, 48 h
[1] = system: CAKI-1 renal
[2] = system: OVCAR-4 ovarian
[3] = system: COLO 205 colon
[4] = system: DU-145 prostate
[5] = system: NCI-H226 lung
[6] = system: SK-MEL-28 melanoma
[7] = system: T-47D breast
[8] = system: OVCAR-8 ovarian
[9] = system: SF-268 CNS
[10] = system: SF-539 CNS
[11] = system: BT-549 breast
[12] = system: UACC-62 melanoma
[13] = system: CCRF-CEM leukemia
[14] = system: KM12 colon
[15] = system: EKVX NSCLC
[16] = system: SR leukemia
[17] = system: TK-10 renal
[18] = system: PC-3 prostate
[19] = system: HT29 colon
[20] = system: RPMI-8226 leukemia
[21] = system: HCC-2998 colon
[22] = system: SNB-19 CNS
[23] = system: HCT-116 colon
[24] = system: A498 renal
[25] = system: HS 578T breast
[26] = system: SF-295 CNS
[27] = system: SK-OV-3 ovarian
[28] = system: NCI-H23 lung
[29] = system: UO-31 renal
[30] = system: SK-MEL-2 melanoma
[31] = system: SN12C renal
[32] = system: NCI/ADR-RES ovarian
[33] = system: UACC-257 melanoma
[34] = system: U251 CNS
[35] = system: MDA-MB-231 breast
[36] = system: 786-0 renal
[37] = system: OVCAR-3 ovarian
[38] = system: SW-620 colon
[39] = system: A549 NSCLC
[40] = system: HL-60(TB) leukemia
[41] = system: IGROV1 ovarian
[42] = system: HOP-62 NSCLC
[43] = system: LOX IMVI melanoma
[44] = system: OVCAR-5 ovarian
[45] = system: NCI-H522 lung
[46] = system: NCI-H460 lung
[47] = system: SK-MEL-5 melanoma
[48] = system: K-562 leukemia
[49] = system: SNB-75 CNS
[50] = system: RXF 393 renal
[51] = system: MDA-MB-435
[52] = system: MALME-3M melanoma
[53] = system: M14 melanoma
[54] = system: ACHN renal
[55] = system: MOLT-4 leukemia
[56] = system: HCT-15 colon
[57] = system: HOP-92 NSCLC

`Cc1ccc2c(n1)C(=O)C(Cl)=C(Nc1cccc(C(C)C)c1)C2=O` showed a GI50 [1] of 1880 nM, a TGI [1] of 6.22 µM and a GI50 [2] of 1350 nM. For the same molecule, the TGI [2] was 2640 nM, the GI50 [3] was 3.33 µM and the TGI [3] was 12.1 µM. It also gave a GI50 [4] of 1860 nM, a TGI [4] of 3.82 µM and a GI50 [5] of 1480 nM. It also gave a TGI [5] of 3.59 µM, a GI50 [6] of 2400 nM and a TGI [6] of 5.58 µM. The GI50 [7] was 1610 nM, the TGI [7] was 4.15 µM and the GI50 [8] was 2530 nM. For the same molecule, the TGI [8] was 8.97 µM, the GI50 [9] was 3.17 µM and the TGI [9] was 34.6 µM. The GI50 [10] was 1710 nM, the TGI [10] was 3.15 µM and the GI50 [11] was 2450 nM. The TGI [11] was 10.8 µM, the GI50 [12] was 2050 nM and the TGI [12] was 4.64 µM. It also gave a GI50 [13] of 2360 nM, a TGI [13] of 19.9 µM and a GI50 [14] of 4.94 µM. It also gave a TGI [14] of 28.6 µM, a GI50 [15] of 1590 nM and a TGI [15] of 3.24 µM. The GI50 [16] was 1630 nM, the TGI [16] was > 100 µM and the GI50 [17] was 4.67 µM. The TGI [17] was 13.8 µM, the GI50 [18] was 2170 nM and the TGI [18] was 16.3 µM. The GI50 [19] was 3.84 µM, the TGI [19] was 31.4 µM and the GI50 [20] was 1500 nM. It also gave a TGI [20] of 5.18 µM, a GI50 [21] of 3.95 µM and a TGI [21] of 13.7 µM. For the same molecule, the GI50 [22] was 3.23 µM, the TGI [22] was 13.6 µM and the GI50 [23] was 1520 nM. For the same molecule, the TGI [23] was 3.55 µM, the GI50 [24] was 6.56 µM and the TGI [24] was 19.9 µM. It also gave a GI50 [25] of 2290 nM, a TGI [25] of 6.16 µM and a GI50 [26] of 3.5 µM. For the same molecule, the TGI [26] was 11.5 µM, the GI50 [27] was 13.2 µM and the TGI [27] was 26.7 µM. For the same molecule, the GI50 [28] was 1580 nM, the TGI [28] was 4.55 µM and the GI50 [29] was 1490 nM. It also gave a TGI [29] of 2830 nM, a GI50 [30] of 3.72 µM and a TGI [30] of 12.8 µM. For the same molecule, the GI50 [31] was 1760 nM, the TGI [31] was 4.54 µM and the GI50 [32] was 2490 nM. The TGI [32] was 9.13 µM, the GI50 [33] was 1590 nM and the TGI [33] was 3.07 µM. It also gave a GI50 [34] of 2940 nM, a TGI [34] of 11.1 µM and a GI50 [35] of 1370 nM. For the same molecule, the TGI [35] was 3.01 µM, the GI50 [36] was 2180 nM and the TGI [36] was 5.44 µM. It also gave a GI50 [37] of 617 nM, a TGI [37] of 2910 nM and a GI50 [38] of 1940 nM. For the same molecule, the TGI [38] was 4.03 µM, the GI50 [39] was 3.66 µM and the TGI [39] was 14 µM. It also gave a GI50 [40] of 1730 nM, a TGI [40] of 6.41 µM and a GI50 [41] of 1560 nM. It also gave a TGI [41] of 3.1 µM, a GI50 [42] of 2700 nM and a TGI [42] of 10.8 µM. For the same molecule, the GI50 [43] was 698 nM, the TGI [43] was 2540 nM and the GI50 [44] was 2170 nM. For the same molecule, the TGI [44] was 4.55 µM, the GI50 [45] was 2250 nM and the TGI [45] was 5.6 µM. The GI50 [46] was 3.42 µM, the TGI [46] was 13.5 µM and the GI50 [47] was 1670 nM. The TGI [47] was 3.06 µM, the GI50 [48] was 2470 nM and the TGI [48] was > 100 µM. For the same molecule, the GI50 [49] was 1400 nM, the TGI [49] was 3.19 µM and the GI50 [50] was 1290 nM. The TGI [50] was 2560 nM, the GI50 [51] was 1710 nM and the TGI [51] was 3.16 µM. For the same molecule, the GI50 [52] was 1650 nM, the TGI [52] was 3.18 µM and the GI50 [53] was 2940 nM. For the same molecule, the TGI [53] was 10.1 µM, the GI50 [54] was 1690 nM and the TGI [54] was 3.12 µM. For the same molecule, the GI50 [55] was 2270 nM, the TGI [55] was > 100 µM and the GI50 [56] was 1430 nM. The TGI [56] was 3.36 µM, the GI50 [57] was 1760 nM and the TGI [57] was 3.58 µM.
